Measured values published in PMC3776780, “Dual p38/JNK Mitogen Activated Protein Kinase Inhibitors Prevent Ozone-Induced Airway Hyperreactivity in Guinea Pigs” (PLoS ONE, 2013).
Like-named read-outs stand apart in the source and are kept apart here.

Legend:
[1] = test system: vagally mediated falls in heart rate; assay: falls in heart rate in response to vagal stimulation; assay type: in vivo, guinea pigs; conditions: ozone-exposed, 30 mg/kg ip 1 h before ozone
Experimental: (§1) Guinea pigs were exposed to 2 ppm ozone or filtered air for 4 hours as described previously. Physiological measurements, airway inflammation, and histological measurements were made one day after a single ozone exposure.
(§2) Animals were given 30 mg/kg intraperitoneally of the dual p38 and JNK MAPK inhibitors V-05-013, V-05-014, or V-05-015 (Vertex Pharmaceuticals, Cambridge, MA) one hour before ozone exposure (Figure 1). These compounds were chosen because of their overall kinase selectivity profile. […] Inhibitors were dissolved in 25% DMSO in phosphate buffered saline (PBS). Air exposed control animals were given 25% DMSO in PBS one hour before ozone exposure.
(§3) Physiological measurements were made as previously described. The jugular veins were cannulated for intravenous administration of drugs and the right carotid artery was cannulated to measure heart rate and blood pressure. Both vagus nerves were cut and distal ends placed on platinum electrodes submerged in liquid paraffin. Animals were tracheostomized, ventilated (1 ml/100 g body weight, 100 breaths per minute) and paralyzed with a constant infusion of succinylcholine (10 µg/kg/min iv, Sigma-Aldrich). Pulmonary inflation pressure was measured at the trachea and bronchoconstriction was measured as the increase in pressure over basal inflation pressure produced by the ventilator.
Electrical stimulation of both vagus nerves (10V, 0.2 ms pulse width, 1–25 Hz, 5 sec duration at 1 minute intervals) produced frequency dependent bronchoconstriction and bradycardia due to release of acetylcholine onto muscarinic receptors.

SYK = SYK (Homo sapiens, UniProt P43405); assay: spectrophotometric coupled-enzyme kinase inhibition assay; assay type: biochemical; conditions: read-out: Ki or IC50 SYK
Experimental: (§4) Affinity was measured using a kinase inhibition assay. Compounds were assayed for the inhibition of various kinases using a modification of a spectrophotometric coupled-enzyme assay. In this assay, a fixed concentration of activated kinase (10–40 nM) was incubated with various concentrations of a potential inhibitor dissolved in DMSO for 10 minutes at 30°C in a buffer containing 0.1 M HEPES, pH 7.5, containing 10 mM MgCl2, 2.5 mM phosphoenolpyruvate, 200 µM NADH, 2 mM DTT, 30 µg/mL pyruvate kinase, 10 µg/mL lactate dehydrogenase, and 200 µM–500 µM EGF receptor peptide. The EGF receptor peptide has the sequence […]. The reaction was initiated by the addition of ATP equal to the ATP Km of the kinase, and the assay plate is inserted into the spectrophotometer’s assay plate compartment that was maintained at 30°C. The decrease of absorbance at 340 nm was monitored as a function of time for 10 minutes. The rate data as a function of inhibitor concentration was either fit as an IC50 or to a competitive inhibition kinetic model to determine the compound Ki (see table 1).

cMET = cMET (Homo sapiens, UniProt P08581); assay: as above; assay type: biochemical; conditions: read-out: Ki or IC50 cMET
Experimental: as §4

IGF1R = IGF1R (Homo sapiens, UniProt P08069); assay: as above; assay type: biochemical; conditions: read-out: Ki or IC50 IGF1R
Experimental: as §4

SRC = SRC (Homo sapiens, UniProt P12931); assay: as above; assay type: biochemical; conditions: read-out: Ki or IC50 SRC
Experimental: as §4

KDR = KDR (Homo sapiens, UniProt P35968); assay: as above; assay type: biochemical; conditions: read-out: Ki or IC50 KDR
Experimental: as §4

PRAK = molecular target: T1, PRAK (Homo sapiens, UniProt Q8IW41); assay: as above; assay type: biochemical; conditions: read-out: Ki or IC50 PRAK
T1 sequence (Q8IW41 1-473): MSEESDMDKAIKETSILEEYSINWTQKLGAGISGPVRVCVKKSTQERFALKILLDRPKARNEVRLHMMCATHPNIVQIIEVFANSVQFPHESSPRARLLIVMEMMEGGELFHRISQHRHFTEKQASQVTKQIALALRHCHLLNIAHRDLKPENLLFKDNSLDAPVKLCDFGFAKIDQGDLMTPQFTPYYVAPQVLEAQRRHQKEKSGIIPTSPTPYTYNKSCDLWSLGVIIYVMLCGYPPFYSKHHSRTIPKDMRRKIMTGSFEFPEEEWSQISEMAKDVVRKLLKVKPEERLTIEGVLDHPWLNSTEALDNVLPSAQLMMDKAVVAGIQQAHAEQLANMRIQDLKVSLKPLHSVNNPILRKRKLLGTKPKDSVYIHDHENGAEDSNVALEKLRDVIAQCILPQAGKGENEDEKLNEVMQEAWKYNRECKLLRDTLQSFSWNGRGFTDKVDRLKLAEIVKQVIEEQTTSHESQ
Experimental: as §4

AKT3 = AKT3 (Homo sapiens, UniProt Q9Y243); assay: as above; assay type: biochemical; conditions: read-out: Ki or IC50 AKT3
Experimental: as §4

JNK3 = JNK3 (Homo sapiens, UniProt P53779); assay: as above; assay type: biochemical; conditions: ATP equal to Km, 30°C
Experimental: as §4

GSK3β = GSK3β (Homo sapiens, UniProt P49841); assay: as above; assay type: biochemical
Experimental: as §4

JNK2 = JNK2 (Homo sapiens, UniProt P45984); assay: as above; assay type: biochemical; conditions: ATP equal to Km, 30°C
Experimental: as §4

PLK1 = PLK1 (Homo sapiens, UniProt P53350); assay: as above; assay type: biochemical; conditions: read-out: Ki or IC50 PLK1
Experimental: as §4

[2] = baseline cardiovascular and pulmonary parameters one day after ozone or air exposure; assay type: in vivo, guinea pigs; conditions: ozone-exposed (2 ppm, 4 h), inhibitor 30 mg/kg ip 1 h before, one day post-exposure, mean ± SEM
Experimental: as §1, §2
One day after exposure to ozone, guinea pigs were anesthetized with 1.9 g/kg urethane i.p. (Sigma-Aldrich, St. Louis, MO). This dose produces a deep anesthesia lasting 8–10 hours though no experiments lasted longer than 4 hours.
as §3

[3] = test system: M3 muscarinic receptor function on airway smooth muscle; assay: smooth muscle M3 muscarinic receptor function (bronchoconstriction to intravenous acetylcholine); assay type: in vivo, guinea pigs; conditions: acetylcholine 1–10 µg/kg iv; for effect on ozone-induced potentiation of bronchoconstriction to intravenous acetylcholine: ozone-exposed, 30 mg/kg ip 1 h before ozone
Experimental: as §1, §2
Recovery from vagal stimulation was confirmed by pulmonary inflation pressure and heart rate returning to baseline before measuring smooth muscle M3 muscarinic receptor function (5–10 minutes after cessation of vagal stimulation). In vagotomized guinea pigs, M3 muscarinic receptor function on airway smooth muscle was tested by measuring bronchoconstriction after administration of acetylcholine (1–10 µg/kg iv, Sigma-Aldrich).

IGF1R, sequence (P08069 31-1367, species assumed): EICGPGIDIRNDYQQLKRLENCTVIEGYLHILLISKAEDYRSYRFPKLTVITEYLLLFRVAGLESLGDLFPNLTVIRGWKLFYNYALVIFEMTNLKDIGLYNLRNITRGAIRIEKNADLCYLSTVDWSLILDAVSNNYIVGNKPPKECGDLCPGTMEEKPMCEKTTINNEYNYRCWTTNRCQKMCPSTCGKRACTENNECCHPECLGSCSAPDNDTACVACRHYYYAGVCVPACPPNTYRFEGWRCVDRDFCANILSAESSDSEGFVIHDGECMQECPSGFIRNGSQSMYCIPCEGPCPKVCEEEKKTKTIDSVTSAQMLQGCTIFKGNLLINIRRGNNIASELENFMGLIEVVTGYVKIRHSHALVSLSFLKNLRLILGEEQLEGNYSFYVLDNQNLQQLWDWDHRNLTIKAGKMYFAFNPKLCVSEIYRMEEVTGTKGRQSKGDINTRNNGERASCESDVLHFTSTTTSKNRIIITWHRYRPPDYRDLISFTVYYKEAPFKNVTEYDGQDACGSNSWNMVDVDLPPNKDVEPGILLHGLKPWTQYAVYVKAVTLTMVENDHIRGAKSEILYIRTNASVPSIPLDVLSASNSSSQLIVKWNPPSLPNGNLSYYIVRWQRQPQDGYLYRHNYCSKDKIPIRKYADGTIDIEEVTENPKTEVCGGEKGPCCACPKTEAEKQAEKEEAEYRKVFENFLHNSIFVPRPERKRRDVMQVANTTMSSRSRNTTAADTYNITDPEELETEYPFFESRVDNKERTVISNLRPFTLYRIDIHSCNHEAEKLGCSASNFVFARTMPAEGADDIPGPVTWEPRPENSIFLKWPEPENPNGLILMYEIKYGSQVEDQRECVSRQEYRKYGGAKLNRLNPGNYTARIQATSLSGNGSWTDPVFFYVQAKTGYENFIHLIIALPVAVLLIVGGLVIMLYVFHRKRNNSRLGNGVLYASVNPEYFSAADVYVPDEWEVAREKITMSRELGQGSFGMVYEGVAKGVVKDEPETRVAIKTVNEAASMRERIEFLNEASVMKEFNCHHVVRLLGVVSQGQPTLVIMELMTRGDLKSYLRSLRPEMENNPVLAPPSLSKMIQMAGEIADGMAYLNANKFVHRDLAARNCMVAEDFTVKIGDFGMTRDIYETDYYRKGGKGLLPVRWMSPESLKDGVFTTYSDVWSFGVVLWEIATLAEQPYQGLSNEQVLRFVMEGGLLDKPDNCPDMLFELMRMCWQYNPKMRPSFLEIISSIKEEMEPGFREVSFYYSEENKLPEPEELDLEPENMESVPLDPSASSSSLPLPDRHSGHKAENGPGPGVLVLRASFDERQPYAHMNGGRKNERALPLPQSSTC
JNK2, sequence (P45984 whole entry, species assumed): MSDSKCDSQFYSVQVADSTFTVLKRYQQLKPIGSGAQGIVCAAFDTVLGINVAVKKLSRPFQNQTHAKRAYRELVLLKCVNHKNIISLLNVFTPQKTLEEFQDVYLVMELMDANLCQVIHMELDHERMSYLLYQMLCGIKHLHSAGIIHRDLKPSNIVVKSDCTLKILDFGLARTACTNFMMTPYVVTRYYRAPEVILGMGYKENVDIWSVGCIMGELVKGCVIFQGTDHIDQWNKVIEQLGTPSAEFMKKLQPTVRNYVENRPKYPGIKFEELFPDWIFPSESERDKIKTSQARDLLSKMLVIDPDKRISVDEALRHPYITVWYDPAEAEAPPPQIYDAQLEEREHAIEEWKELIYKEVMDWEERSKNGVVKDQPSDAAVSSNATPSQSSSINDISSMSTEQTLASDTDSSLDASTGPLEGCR
KDR, sequence (P35968 20-1356, species assumed): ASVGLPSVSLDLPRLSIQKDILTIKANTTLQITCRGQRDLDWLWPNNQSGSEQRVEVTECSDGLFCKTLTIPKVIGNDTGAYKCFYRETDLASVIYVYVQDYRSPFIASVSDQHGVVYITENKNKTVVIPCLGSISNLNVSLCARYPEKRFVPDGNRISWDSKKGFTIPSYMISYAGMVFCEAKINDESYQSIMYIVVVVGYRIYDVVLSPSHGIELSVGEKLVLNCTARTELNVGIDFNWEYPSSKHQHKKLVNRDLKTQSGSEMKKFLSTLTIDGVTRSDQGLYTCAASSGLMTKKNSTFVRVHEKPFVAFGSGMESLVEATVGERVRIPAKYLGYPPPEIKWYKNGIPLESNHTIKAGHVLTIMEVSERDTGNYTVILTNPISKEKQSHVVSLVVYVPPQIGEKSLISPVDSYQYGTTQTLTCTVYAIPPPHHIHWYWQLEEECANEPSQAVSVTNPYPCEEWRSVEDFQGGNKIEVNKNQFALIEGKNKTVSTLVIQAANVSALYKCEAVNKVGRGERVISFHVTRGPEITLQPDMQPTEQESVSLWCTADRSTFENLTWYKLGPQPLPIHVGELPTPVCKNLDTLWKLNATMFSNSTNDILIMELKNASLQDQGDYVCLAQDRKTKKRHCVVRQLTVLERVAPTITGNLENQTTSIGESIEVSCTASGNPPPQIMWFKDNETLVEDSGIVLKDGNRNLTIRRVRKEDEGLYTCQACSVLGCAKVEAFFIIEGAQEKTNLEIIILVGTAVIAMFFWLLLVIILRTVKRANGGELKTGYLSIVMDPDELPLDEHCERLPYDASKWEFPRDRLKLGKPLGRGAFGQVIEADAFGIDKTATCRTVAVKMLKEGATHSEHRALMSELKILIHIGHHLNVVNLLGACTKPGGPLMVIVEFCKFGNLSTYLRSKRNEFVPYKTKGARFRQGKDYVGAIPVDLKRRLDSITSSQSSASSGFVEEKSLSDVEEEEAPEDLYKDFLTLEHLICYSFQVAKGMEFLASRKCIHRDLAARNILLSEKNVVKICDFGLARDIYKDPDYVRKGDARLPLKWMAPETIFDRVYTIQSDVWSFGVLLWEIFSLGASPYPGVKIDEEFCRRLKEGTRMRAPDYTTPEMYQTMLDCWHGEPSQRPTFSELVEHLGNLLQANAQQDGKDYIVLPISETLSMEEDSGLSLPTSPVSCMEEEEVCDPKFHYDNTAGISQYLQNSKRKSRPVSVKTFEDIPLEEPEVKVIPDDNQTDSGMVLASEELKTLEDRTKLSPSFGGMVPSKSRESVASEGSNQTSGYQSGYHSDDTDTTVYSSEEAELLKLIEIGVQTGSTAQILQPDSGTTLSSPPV
PLK1, sequence (P53350 whole entry, species assumed): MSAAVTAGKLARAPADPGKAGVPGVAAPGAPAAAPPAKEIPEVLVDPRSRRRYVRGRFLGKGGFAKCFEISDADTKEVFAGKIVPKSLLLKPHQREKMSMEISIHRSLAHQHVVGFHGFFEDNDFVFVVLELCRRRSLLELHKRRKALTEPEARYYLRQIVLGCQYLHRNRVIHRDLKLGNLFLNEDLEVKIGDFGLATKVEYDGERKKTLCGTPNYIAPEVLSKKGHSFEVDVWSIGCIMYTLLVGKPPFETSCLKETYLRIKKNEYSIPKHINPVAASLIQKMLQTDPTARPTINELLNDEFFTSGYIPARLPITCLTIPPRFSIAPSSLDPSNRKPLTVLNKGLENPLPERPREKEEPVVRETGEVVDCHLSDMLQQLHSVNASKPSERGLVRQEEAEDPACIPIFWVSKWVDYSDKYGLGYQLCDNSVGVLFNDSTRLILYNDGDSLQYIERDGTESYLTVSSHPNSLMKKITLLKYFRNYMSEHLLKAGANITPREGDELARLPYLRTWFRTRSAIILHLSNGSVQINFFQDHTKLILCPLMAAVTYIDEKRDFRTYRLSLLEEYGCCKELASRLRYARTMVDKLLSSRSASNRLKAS
JNK3, sequence (P53779 whole entry, species assumed): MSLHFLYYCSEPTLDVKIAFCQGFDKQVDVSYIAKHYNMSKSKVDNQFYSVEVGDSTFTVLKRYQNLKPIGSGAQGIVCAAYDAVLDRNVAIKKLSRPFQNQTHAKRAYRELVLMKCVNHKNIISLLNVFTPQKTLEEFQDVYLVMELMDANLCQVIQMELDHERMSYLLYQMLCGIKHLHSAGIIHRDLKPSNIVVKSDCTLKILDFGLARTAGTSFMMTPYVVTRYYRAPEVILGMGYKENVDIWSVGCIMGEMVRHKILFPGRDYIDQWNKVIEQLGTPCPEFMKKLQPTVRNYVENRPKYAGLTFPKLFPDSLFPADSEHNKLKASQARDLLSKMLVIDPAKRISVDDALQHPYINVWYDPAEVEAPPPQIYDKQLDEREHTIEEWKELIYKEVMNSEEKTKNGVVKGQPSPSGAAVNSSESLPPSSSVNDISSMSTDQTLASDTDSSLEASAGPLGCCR
GSK3β, sequence (P49841 whole entry, species assumed): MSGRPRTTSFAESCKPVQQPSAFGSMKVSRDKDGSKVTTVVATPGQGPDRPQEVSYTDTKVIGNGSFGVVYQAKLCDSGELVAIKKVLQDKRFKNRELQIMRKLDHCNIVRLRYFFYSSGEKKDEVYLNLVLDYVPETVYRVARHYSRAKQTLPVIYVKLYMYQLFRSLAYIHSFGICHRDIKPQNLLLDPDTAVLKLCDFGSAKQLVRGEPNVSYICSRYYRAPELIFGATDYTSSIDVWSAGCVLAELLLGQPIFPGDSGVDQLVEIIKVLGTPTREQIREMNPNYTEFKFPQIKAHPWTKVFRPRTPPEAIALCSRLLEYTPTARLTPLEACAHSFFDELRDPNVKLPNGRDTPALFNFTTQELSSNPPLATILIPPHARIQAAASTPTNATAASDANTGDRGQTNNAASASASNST
AKT3, sequence (Q9Y243 whole entry, species assumed): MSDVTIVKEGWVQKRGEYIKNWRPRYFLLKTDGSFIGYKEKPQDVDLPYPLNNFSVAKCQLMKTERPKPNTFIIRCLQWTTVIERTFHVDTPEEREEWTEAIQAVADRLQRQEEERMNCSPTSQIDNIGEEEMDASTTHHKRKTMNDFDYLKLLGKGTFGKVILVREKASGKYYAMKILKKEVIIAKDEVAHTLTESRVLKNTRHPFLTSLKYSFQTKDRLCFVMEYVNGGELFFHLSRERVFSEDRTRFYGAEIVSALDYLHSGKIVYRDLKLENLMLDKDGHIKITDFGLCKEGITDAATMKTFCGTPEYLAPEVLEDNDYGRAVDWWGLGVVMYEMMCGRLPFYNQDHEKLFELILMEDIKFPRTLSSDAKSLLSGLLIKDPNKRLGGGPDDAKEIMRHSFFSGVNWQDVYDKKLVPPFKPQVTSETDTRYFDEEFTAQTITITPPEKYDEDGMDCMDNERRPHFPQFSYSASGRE

| Ki (SYK) | Ki (cMET) | Ki (IGF1R) | Ki (SRC) | Ki (KDR) | Ki (PRAK) | Ki (AKT3) | Ki (JNK3) | Ki (GSK3β; read-out: GSK3β Ki) | Ki (JNK2) | Ki (PLK1) | Ki (GSK3β; read-out: Ki or IC50 GSK3β) | SMILES | effect on ozone-induced potentiation of vagally mediated falls in heart rate [1] | Pulmonary Inflation Pressure (baseline) [2] | effect on ozone-induced potentiation of bronchoconstriction to intravenous acetylcholine [3] | bronchoconstriction in response to intravenous acetylcholine ([3]; air-exposed, 30 mg/kg ip) |
| --- | --- | --- | --- | --- | --- | --- | --- | --- | --- | --- | --- | --- | --- | --- | --- | --- |
| > 1000 nM | > 1000 nM | > 1000 nM | > 1000 nM | > 1000 nM | > 1000 nM | > 1000 nM | 5 nM | 730 nM | 10 nM | > 1000 nM | – | OC1CCN(Cc2onc(-c3ccc(F)cc3)c2-c2ccnc(NC3CCCCC3)n2)CC1 [V-05-013] | prevented the ozone-induced potentiation of frequency induced falls in heart rate | 190±15 ^‡ mmH2O | not blocked | – |
| > 1000 nM | > 1000 nM | > 1000 nM | > 1000 nM | > 1000 nM | > 1000 nM | > 1000 nM | 10 nM | – | 15 nM | > 1000 nM | > 1000 nM | OC[C@@H]1CCCN1Cc1onc(-c2ccc(F)cc2)c1-c1ccnc(NC2CCCCC2)n1 [V-05-014] | prevented the ozone-induced potentiation of frequency induced falls in heart rate | 225±5 mmH2O | not blocked | – |
| > 1000 nM | > 1000 nM | > 1000 nM | > 1000 nM | > 1000 nM | > 1000 nM | > 1000 nM | 8 nM | – | 4 nM | > 1000 nM | > 1000 nM | Fc1ccc(-c2noc(CN3CCCCC3)c2-c2ccnc(NC3CCCCC3)n2)cc1 [V-05-015] | prevented the ozone-induced potentiation of frequency induced falls in heart rate | 213±7 mmH2O | attenuated ozone-induced smooth muscle hyperreactivity | hyperreactive to intravenous acetylcholine |
